Results taken from US20190183910A1, “ENHANCING DNA REPAIR AND PREVENTING AGING AND ITS CONSEQUENCES IN REPRODUCTIVE AND OTHER CELLS” (NEW YORK MEDICAL COLLEGE, priority 2016, published 2019).

Assays:
[1] = clinical use, FDA-approved for multiple sclerosis; cited from earlier work
[2] = post-transplantation clinical trials; cited from earlier work
mouse sperm [3] = test: Alkaline comet assay on mouse sperm; assay type: cell-based; details: mouse sperm, H2O2 alone (1 mM), without ATM inhibitor, n=9, mean±SEM
Procedure: (§1) Treatment was performed with genotoxic stress (1 mM H2O2), S1P (200 μM), and S1P with genotoxic stress and control in culture for one hour. Also, the use of an ATM inhibitor was utilized (10 μM) (KU-55593, Abcam) (Li et al., 2014). We assessed DNA damage, apoptosis, and chromatin integrity. We also studied the DNA DSB repair gene expression by qRT-PCR in sperm lysates.
Slides were prepared 48 hours prior to experimentation by coating normal glass microscope slides with 500 μl normal melting point agar (0.5% w/v in PBS) solution and left to dry at room temperature for no less than 48 hours. Then, 10 μl of mouse sperm suspension was mixed with 90 μl of 0.5% LMPA. Then this 100 μl solution was added to the NMPA-coated slides. Coverslips were added and slides were placed on a metallic tray on ice and in the dark for 5 minutes. The cover slips were removed and a 90 μl layer of LMPA was added. Cover slips were subsequently replaced before the LMPA hardened. Slides were then kept in the dark on ice again for another 5 minutes. After ten minutes, the cover slips were removed and slides were placed in staining jars containing ice cold lysing solution (2.5 M NaCl, 200 mM NaOH, 100 mM EDTA, 10 mM Trizma Base, 1% Triton X-100 and 10% DMSO [pH 10]) for 1.5 hours at 4° C. in a dark place.
After this lysis step, the slides were washed three times for 5 minutes with TE buffer (pH 8.0), and then placed flatly in the electrophoresis tank face up for 30 minutes to achieve the unwinding of the DNA. The alkaline electrophoresis buffer in this tank included 300 mM NaOH and 1 mM EDTA [pH13]. This incubation period was used to achieve the alkaline unwinding of the DNA. Electrophoresis was then performed at 25 V, 300 mA for 30 minutes. After this, slides were washed twice in neutralization buffer (0.4 M Tris, pH 7.5) for 5 minutes each. Before analysis could occur, the sperm within the slides needed to be fixed by draining the slides well on paper towels and then subjecting them to two 10 minute washes in ethanol, and then air drying at room temperature for 5 minutes. Ethidium bromide (50 μl at 10 μg/ml in water) was then added on the slide, and sealed with a cover slip. Slides were kept moist, wrapped in aluminum foil to prevent light exposure, and stored at 4° C. until analysis (Williams et al., 2014).
Slides from both alkaline and neutral comets were imaged by fluorescence microscopy using a Nikon OPTIPHOT microscope. ImageJ was used for comet assay analysis, which calculated tail length, tail moment, and % of DNA in the tail. […] To analyze the slides, an oval around the sperm head was drawn and calculated and then an oval around the sperm tail was drawn and calculated. […] It was calculated as the Pythagorean distance between two points. […]

mouse sperm [4] = test: Neutral comet assay on mouse sperm; assay type: cell-based; details: mouse sperm, H2O2 alone (1 mM), without ATM inhibitor, n=9, mean±SEM
Procedure: as §1
Slides were prepared 48 hours prior to experimentation by coating normal glass microscope slides with 500 μl normal melting point agar (NMPA, 0.5% w/v in PBS) solution and left to dry at room temperature for no less than 48 hours. Once samples were obtained, 10 μl of mouse sperm suspension was mixed with 90 μl of 0.5% low melting point agar (LMPA). Then, this 100 μl solution was added to the NMPA-coated slides. Coverslips were added and slides were placed on a metallic tray on ice and in the dark for 5 minutes. The cover slips were then removed and another layer of LMPA was added. Cover slips were subsequently replaced before the LMPA hardened. Slides were then kept in the dark on ice again for another 5 minutes. After ten minutes, the cover slips were removed and slides were placed in staining jars containing ice cold lysing solution (2.5 M NaCl, 100 mM EDTA, sodium N-laurylsacrosinate [SLS]. [1% w/v] and 10 mM Trizma base pH10, and 1% Triton-X-100 and 10% DMSO [immediately adding before use]) for 1 hour at 4° C. in a dark place.
After this lysis step, the slides were washed three times for 5 minutes with the cold electrophoresis buffer (0.089 M Tris base, 0.089 M boric acid and 2 mM EDTA [pH 8.3]), and then placed flatly in the electrophoresis tank face up for 30 minutes. This incubation period was used to achieve the unwinding of the DNA. Electrophoresis was then performed at 18 V for 60 minutes. After this, slides were washed twice in PBS for 5 minutes each. Before analysis could occur, the sperm within the slides needed to be fixed by two 10 minute washes in ethanol, and then air drying at room temperature. Ethidium bromide (50 μl at 10 μg/ml in water) was then added on the slide, and sealed with a cover slip. Slides were kept moist, wrapped in aluminum foil to prevent light exposure, and stored at 4° C. until analysis (Smart et al., 2008).
Slides from both alkaline and neutral comets were imaged by fluorescence microscopy using a Nikon OPTIPHOT microscope. ImageJ was used for comet assay analysis, which calculated tail length, tail moment, and % of DNA in the tail. […] The comets were “on scale” for the calculations to be correct (the brightest pixels of interest were below 255 on an 8-bit scale). […] To analyze the slides, an oval around the sperm head was drawn and calculated and then an oval around the sperm tail was drawn and calculated. […] It was calculated as the Pythagorean distance between two points. […]

human sperm = test: Alkaline comet assay on human sperm; assay type: cell-based; details: H2O2 alone, without ATM inhibitor, n=3, mean±SEM

SMILES | safety profile [1] | benefit as antirejection medication [2] | percent tail DNA, alkaline comet (mouse sperm [3]) | percent tail DNA, neutral comet (mouse sperm [4]) | percent tail DNA, alkaline comet (human sperm)
CCCCCCCCc1ccc(CCC(N)(CO)CO)cc1 [FTY720] | acceptable safety profile | failed to show any significant benefit | – | – | –
OO [H2O2, reference compound] | – | – | 27.3±0.90% | 29.6±0.64% | 24.0±1.70%
